Measurements from ChEMBL document CHEMBL1123182, “Synthesis and biological properties of chitin synthetase inhibitors resistant to cellular peptidases” (J Med Chem, 1986).
Values after ≈ are worked out from the molar mass of the structure shown.

Assays:
[1] = target: Chitin synthase 1 (Candida albicans) (UniProt P23316); assay: Compound was tested for the inhibitory activity against chitin synthetase in the mixed membrane preparation from Candida albicans; assay type: cell membranes
[2] = tested on: Candida albicans; assay: Compound was tested for the inhibitory activity against Candida albicans cell growth; assay type: functional
[3] = target: Chitin synthase 1 (Candida albicans) (UniProt P23316); assay: Compound was tested for the inhibitory activity against chitin synthetase in the permeabilised cell assay
[4] = tested on: Candida albicans; assay: Millimolar concentration of the lowest concentration that clearly inhibited the cell growth of Candida albicans was determined; assay type: functional
[5] = tested on: Candida albicans; assay: Millimolar concentration at which some morphological effects in Candida albicans cells (about 5% of cells) was determined; assay type: functional; conditions: read-out: MEC
[6] = target: T1, Chitin synthase 1 (Candida albicans, UniProt P23316); assay: Compound was tested for the inhibitory activity against chitin synthetase
T1 sequence (P23316 whole entry): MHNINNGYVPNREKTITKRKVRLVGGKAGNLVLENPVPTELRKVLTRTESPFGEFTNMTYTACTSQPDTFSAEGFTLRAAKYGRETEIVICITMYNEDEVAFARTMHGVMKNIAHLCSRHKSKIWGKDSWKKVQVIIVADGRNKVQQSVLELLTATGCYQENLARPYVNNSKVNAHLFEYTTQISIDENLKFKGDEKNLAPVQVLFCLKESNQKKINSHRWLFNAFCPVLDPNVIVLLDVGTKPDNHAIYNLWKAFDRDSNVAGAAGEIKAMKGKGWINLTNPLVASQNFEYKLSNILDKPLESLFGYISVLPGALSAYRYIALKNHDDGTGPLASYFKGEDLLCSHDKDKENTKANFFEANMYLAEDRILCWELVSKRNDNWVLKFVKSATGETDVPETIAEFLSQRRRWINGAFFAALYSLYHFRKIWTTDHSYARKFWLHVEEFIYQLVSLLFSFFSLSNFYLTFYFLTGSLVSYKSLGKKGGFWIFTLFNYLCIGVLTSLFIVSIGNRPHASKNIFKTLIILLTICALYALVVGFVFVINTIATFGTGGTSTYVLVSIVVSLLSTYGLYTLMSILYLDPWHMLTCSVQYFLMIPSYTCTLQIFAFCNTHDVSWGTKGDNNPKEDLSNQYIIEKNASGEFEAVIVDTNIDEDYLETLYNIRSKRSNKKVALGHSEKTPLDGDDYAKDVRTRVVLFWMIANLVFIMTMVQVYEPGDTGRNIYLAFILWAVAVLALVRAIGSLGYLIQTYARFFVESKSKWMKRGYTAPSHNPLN

[7] = tested on: Candida albicans; assay: Concentration at which 50% of the Candida albicans cells were not viable; assay type: functional
[8] = target: T1, Chitin synthase 1; assay: Inhibition constant (KI) for the mmf chitin synthetase assay performed at constant inhibitor and varying substrate concentrations

Chain of Chitin synthase 1 (Candida albicans) (P23316 whole entry, looked up): as the sequence (P23316 whole entry) above

Row | SMILES | ID50 [1] [µM] | Viability [2] [mM] | ID50 [3] [µM] | MIC [4] [µM] | minimal effective concentration [5] [µM] | Ki [6] [µM] | concentration killing 50% of cells [7] [mM] | Ki [8] [µM]
1 | NC(Cc1ccccc1)C(=O)N/C(=C/c1ccccc1)C(=O)NC(C(=O)O)[C@H]1O[C@@H](n2ccc(=O)[nH]c2=O)[C@H](O)[C@@H]1O (some centres not stated) | 40 | >2 | 80 | > 2000 | > 2000 | 11.3 | – | –
2 | N[C@@H](Cc1c[nH]c2ccccc12)C(=O)NC(C(=O)O)[C@H]1O[C@@H](n2ccc(=O)[nH]c2=O)[C@H](O)[C@@H]1O (some centres not stated) | > 100 | – | > 100 | > 1000 | 4000 | – | >4 | 1060
3 | CCCCCCCC(=O)NC(Cc1ccccc1)C(=O)NC(C(=O)NC(C(=O)O)[C@H]1O[C@@H](n2cc(C(=O)O)c(=O)[nH]c2=O)[C@H](O)[C@@H]1O)C(O)C(O)COC(N)=O (some centres not stated) | 47.5 | >1 | 50 | 1000 (≈ 795 µg/mL) | 1000 | 7.15 | – | –
4 | CCCCC(N)C(=O)NC(C(N)=O)[C@H]1O[C@@H](n2ccc(=O)[nH]c2=O)[C@H](O)[C@@H]1O (some centres not stated) | 200 | – | > 100 | > 1000 | > 4000 | – | >4 | 246
5 | CCCNC(CC(C)C)C(=O)NC(C(=O)O)[C@H]1O[C@@H](n2ccc(=O)[nH]c2=O)[C@H](O)[C@@H]1O (some centres not stated) | > 100 | >1 | > 100 | 2500 (≈ 1110 µg/mL) | > 2500 | 145 | – | –
6 | CCCCC(NC)C(=O)NC(C(=O)O)[C@H]1O[C@@H](n2ccc(=O)[nH]c2=O)[C@H](O)[C@@H]1O (some centres not stated) | 120 | – | 97.5 | > 1000 | 20 | – | >4 | 218
7 | NOC(Cc1ccccc1)C(=O)NC(C(=O)O)[C@H]1O[C@@H](n2ccc(=O)[nH]c2=O)[C@H](O)[C@@H]1O (some centres not stated) | 100 | – | > 100 | 3000 (≈ 1350 µg/mL) | > 3000 | – | >3 | 978
8 | NC(=O)OCC(O)C(O)C(N)C(=O)NC(C(=O)O)[C@H]1O[C@@H](n2cc(C(=O)O)c(=O)[nH]c2=O)[C@H](O)[C@@H]1O (some centres not stated) | – | – | 1 | 60 (≈ 31.3 µg/mL) | 20 | – | 1 | 0.59
